What is called ΔTm is the change in melting temperature against a reference sample. Usually IC50 stands for the midpoint of a concentration-inhibition curve.

The text below walks through data of patent publication US20220402900A1, “1,2,4-OXADIAZOL-5-ONE DERIVATIVES FOR THE TREATMENT OF CANCER” (Basilea Pharmaceutica International AG, priority 2019, published 2022).

Molecules are shown by their SMILES.

The target in assay [1] is T1, human TEAD2 (amino acids 217-447) (Homo sapiens, UniProt Q15562).
T1 construct: human TEAD2 (amino acids 217-447); His-tag (N); purchased Proteros biostructures PR-0365; host or cells: E. coli
The experiment in a line: Thermal shift assay (TSA). The assay is classed as binding. The conditions noted are these: 3 μM recombinant TEAD2, compound 7 μM, shift vs DMSO control. As to the method: The thermal shift assay (TSA) was utilized to characterize target engagement in vitro based on ligand-dependent thermal stabilization of the protein. N-terminally His-tagged human TEAD2 (amino acids 217-447) expressed and purified from E. coli was purchased from Proteros biostructures (cat no. PR-0365). The melting reactions were performed in white, 96 well qPCR plates (Roche Diagnostics, cat. no. 04 729 692 001) in 20 mM HEPES pH 7, 100 mM NaCl in the presence of 4×SYPRO orange (Sigma, cat. no. S5692). Each well contained 3 μM recombinant TEAD2 and either DMSO (control) or experimental compounds at a final concentration of 7 μM. The total volume was 20 μL and the final DMSO concentration was 1%. The plate was sealed and analyzed in a LightCycler 480 II (Roche Diagnostics) by continuously reading the fluorescence using the 465-580 nm filter set while heating from 25° C. to 95° C. using a linear gradient of 1° C./min. Melting temperatures were determined by numerical differentiation using the LightCycler Thermal Shift Analysis software (Roche Diagnostics). The shifts in melting temperature caused by experimental compounds compared to the control are expressed as ΔTm (Table 2).

Assay [2] relates to TEAD reporter gene activity. The experiment in a line: TEAD reporter gene assay (MCF7 TEAD reporter cell line). The conditions noted are these: Homo sapiens; TEAD luciferase reporter in MCF7 cells, 24 hours; read-out: IC50 TEAD RGA (converted). Type of assay: cell-based. The text has this:
A TEAD reporter cell line was purchased from BPS Bioscience (cat. no. 60618). It contains the firefly luciferase gene under control of TEAD responsive elements stably integrated into the human breast cancer MCF7 cells. In proliferating cells, a basal level of unphosphorylated YAP/TAZ resides in the nucleus and drives the TEAD-dependent expression of the luciferase reporter. The cells were cultivated as recommended by the supplier. Inhibition of TEAD reporter gene activity by experimental compounds was measured using white, clear-bottom, 96 well cell culture plates (Greiner Bio-One, cat. no. 655098). The cells were seeded at a density of 20,000 cells per well in 100 μL growth medium and the plates were incubated overnight at 37° C. with 5% CO2 prior to treatment. Experimental compounds were serially diluted in DMSO to 200× the desired final concentrations. 0.5 μL aliquots of DMSO or the test samples were then mixed into the wells and the cells were further incubated for 24 hours. Luminescence was then measured on a Synergy 4 reader (BioTek) using the ONE-Glo Luciferase Assay System (Promega, cat. no. E6120) according to the manufacturer's instructions. Relative inhibition values were calculated by normalizing the raw data using DMSO-treated cells (0% inhibition) and wells devoid of cells (100% inhibition). IC50 values were calculated by fitting concentration-response data to a sigmoidal 4-parameter logistic model.
A general note: Reporter assays use an easily measured gene product as a stand-in for the process of interest.

T1 sequence (Q15562 217-447): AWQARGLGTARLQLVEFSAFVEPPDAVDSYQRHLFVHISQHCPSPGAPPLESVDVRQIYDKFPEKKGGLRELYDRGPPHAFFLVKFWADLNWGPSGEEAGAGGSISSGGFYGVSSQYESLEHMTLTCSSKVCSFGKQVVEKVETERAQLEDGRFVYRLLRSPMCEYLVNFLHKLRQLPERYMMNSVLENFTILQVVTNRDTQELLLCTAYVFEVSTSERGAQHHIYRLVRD

For the compound `Cc1cnc(Nc2ccc(C(F)(F)F)cc2)c(-c2noc(=O)[nH]2)n1` [Example 32, 3-[6-methyl-3-[4-(trifluoromethyl)anilino]pyrazin-2-yl]-4H-1,2,4-oxadiazol-5-one], the ΔTm at 7 µM in assay [1] stood at 10.2 °C. Further, the 50% inhibitory concentration (IC50) in assay [2] is 28 nM.

As to `Nc1cc(Nc2nccnc2-c2noc(=O)[nH]2)ccc1C(F)(F)F` [Example 33, 3-[3-[3-amino-4-(trifluoromethyl)anilino]pyrazin-2-yl]-4H-1,2,4-oxadiazol-5-one], the ΔTm at 7 µM in assay [1] was 3.6 °C. Besides, the IC50 in assay [2] is 127 nM.

As to `Nc1cc(C(F)(F)F)ccc1Nc1nccnc1-c1noc(=O)[nH]1` [Example 34, 3-[3-[2-amino-4-(trifluoromethyl)anilino]pyrazin-2-yl]-4H-1,2,4-oxadiazol-5-one], the shift in melting temperature (ΔTm) at 7 µM in assay [1] was 0.4 °C. Moreover, the IC50 in assay [2] was 2120 nM.

Regarding `CC(=O)Nc1cnc(Nc2ccc(C(F)(F)F)cc2)c(-c2noc(=O)[nH]2)n1` [Example 35, N-[6-(5-oxo-4H-1,2,4-oxadiazol-3-yl)-5-[4-(trifluoromethyl)anilino]pyrazin-2-yl]acetamide], the ΔTm at 7 µM in assay [1] stood at 2.5 °C. For the same compound, in assay [2], the half-maximal inhibitory concentration (IC50) was 3830 nM.

Turning to `Nc1cnc(-c2noc(=O)[nH]2)c(Nc2ccc(C(F)(F)F)cc2)n1` [Example 36, 3-[5-amino-3-[4-(trifluoromethyl)anilino]pyrazin-2-yl]-4H-1,2,4-oxadiazol-5-one], in assay [1], the thermal shift (ΔTm) at 7 µM worked out at 3.5 °C. Besides, the IC50 in assay [2] is 149 nM.

`O=c1[nH]c(-c2nc3ccccc3nc2Nc2ccc(C(F)(F)F)cc2)no1` [Example 37, 3-[3-[4-(trifluoromethyl)anilino]quinoxalin-2-yl]-4H-1,2,4-oxadiazol-5-one]: the ΔTm at 7 µM in assay [1] stood at 12.1 °C. The half-inhibitory concentration (IC50) in assay [2] was 188 nM.

As for `O=c1[nH]c(-c2ccccc2Nc2ccc(C(F)(F)F)cc2)no1` [Example 38, 3-[2-[4-(trifluoromethyl)anilino]phenyl]-4H-1,2,4-oxadiazol-5-one], in assay [1], the ΔTm at 7 µM was 12.6 °C. In addition, the IC50 in assay [2] is 39 nM.

For `O=c1[nH]c(-c2nccnc2Nc2ccc(C3CC3)cc2)no1` [Example 39, 3-[3-(4-cyclopropylanilino)pyrazin-2-yl]-4H-1,2,4-oxadiazol-5-one], the ΔTm at 7 µM in assay [1] was found to be 9.3 °C. Moreover, the IC50 in assay [2] was 2820 nM.

As for `O=c1[nH]c(-c2nccnc2Nc2ccc(C3(C(F)(F)F)CC3)cc2)no1` [Example 40, 3-[3-[4-[1-(trifluoromethyl)cyclopropyl]anilino]pyrazin-2-yl]-4H-1,2,4-oxadiazol-5-one], the shift in melting temperature (ΔTm) at 7 µM in assay [1] came out at 13.4 °C. Besides, in assay [2], the IC50 was 109 nM.

On to `O=c1[nH]c(-c2nccnc2Nc2ccc(C3CCC3)cc2)no1` [Example 41, 3-[3-(4-cyclobutylanilino)pyrazin-2-yl]-4H-1,2,4-oxadiazol-5-one], for which the ΔTm at 7 µM in assay [1] was 12.5 °C. Also, in assay [2], the half-maximal inhibitory concentration (IC50) was 6570 nM.

Take `N#CC1(c2ccc(Nc3nccnc3-c3noc(=O)[nH]3)cc2)CCC1` [Example 42, 1-[4-[[3-(5-oxo-4H-1,2,4-oxadiazol-3-yl)pyrazin-2-yl]amino]phenyl]cyclobutanecarbonitrile]: in assay [1], the ΔTm at 7 µM was found to be 5.3 °C. The IC50 in assay [2] is 711 nM.

Turning to `O=c1[nH]c(-c2nccnc2Nc2ccc(Cl)cc2)no1` [Example 43, 3-[3-(4-chloroanilino)pyrazin-2-yl]-4H-1,2,4-oxadiazol-5-one], the shift in melting temperature (ΔTm) at 7 µM in assay [1] was 6.6 °C. The IC50 in assay [2] was 930 nM.

As to `O=c1[nH]c(-c2cc(Cl)cnc2Nc2ccc(C(F)(F)F)cc2)no1` [Example 44, 3-[5-chloro-2-[4-(trifluoromethyl)anilino]-3-pyridyl]-4H-1,2,4-oxadiazol-5-one], the shift in melting temperature (ΔTm) at 7 µM in assay [1] worked out at 11.6 °C. The half-maximal inhibitory concentration (IC50) in assay [2] is 225 nM.

Regarding `Nc1cnc(Nc2ccc(C(F)(F)F)cc2)c(-c2noc(=O)[nH]2)c1` [Example 45, 3-[5-amino-2-[4-(trifluoromethyl)anilino]-3-pyridyl]-4H-1,2,4-oxadiazol-5-one], the ΔTm at 7 µM in assay [1] is 6 °C. Moreover, the IC50 in assay [2] was 1350 nM.

In the case of `CNc1cnc(Nc2ccc(C(F)(F)F)cc2)c(-c2noc(=O)[nH]2)c1` [Example 46, 3-[5-(methylamino)-2-[4-(trifluoromethyl)anilino]-3-pyridyl]-4H-1,2,4-oxadiazol-5-one], the shift in melting temperature (ΔTm) at 7 µM in assay [1] was 7.1 °C. The IC50 in assay [2] is 407 nM.

Take `Cc1cc(-c2noc(=O)[nH]2)c(Nc2ccc(C(F)(F)F)cc2)nc1C` [Example 47, 3-[5,6-dimethyl-2-[4-(trifluoromethyl)anilino]-3-pyridyl]-4H-1,2,4-oxadiazol-5-one]: the thermal shift (ΔTm) at 7 µM in assay [1] was 18 °C. The IC50 in assay [2] is 72 nM.

Regarding `O=c1[nH]c(-c2c(OCCO)ccnc2Nc2ccc(Cl)cc2)no1` [Example 48, 3-[2-(4-chloroanilino)-4-(2-hydroxyethoxy)-3-pyridyl]-4H-1,2,4-oxadiazol-5-one], in assay [1], the ΔTm at 7 µM is 1.9 °C. Also, in assay [2], the IC50 is 507 nM.

Take `O=c1[nH]c(-c2c(Nc3ccc(C(F)(F)F)cc3)ncc3c2CCC3)no1` [Example 49, 3-[3-[4-(trifluoromethyl)anilino]-6,7-dihydro-5H-cyclopenta[c]pyridin-4-yl]-4H-1,2,4-oxadiazol-5-one]: in assay [1], the shift in melting temperature (ΔTm) at 7 µM amounted to 0.6 °C. For the same compound, the concentration for half-maximal inhibition (IC50) in assay [2] is 649 nM.

Regarding `O=c1[nH]c(-c2nccnc2Nc2ccc(S(F)(F)(F)(F)F)cc2)no1` [Example 50, 3-[3-[4-(pentafluoro-λ6-sulfanyl)anilino]pyrazin-2-yl]-4H-1,2,4-oxadiazol-5-one], the ΔTm at 7 µM in assay [1] was found to be 12.2 °C. The IC50 in assay [2] is 37 nM.

With `O=c1[nH]c(-c2c(OCCO)ccnc2Nc2ccc(C(F)(F)F)cc2)no1` [Example 51, 3-[4-(2-hydroxyethoxy)-2-[4-(trifluoromethyl)anilino]-3-pyridyl]-4H-1,2,4-oxadiazol-5-one], in assay [1], the ΔTm at 7 µM came out at 5.1 °C. Moreover, the half-maximal inhibitory concentration (IC50) in assay [2] is 135 nM.

Turning to `CC(C)Oc1ccnc(Nc2ccc(C(F)(F)F)cc2)c1-c1noc(=O)[nH]1` [Example 52, 3-[4-isopropoxy-2-[4-(trifluoromethyl)anilino]-3-pyridyl]-4H-1,2,4-oxadiazol-5-one], the shift in melting temperature (ΔTm) at 7 µM in assay [1] was 5.1 °C. In assay [2], the IC50 was 179 nM.

In the case of `CC(C)(C)Oc1ccnc(Nc2ccc(C(F)(F)F)cc2)c1-c1noc(=O)[nH]1` [Example 53, 3-[4-tert-butoxy-2-[4-(trifluoromethyl)anilino]-3-pyridyl]-4H-1,2,4-oxadiazol-5-one], the ΔTm at 7 µM in assay [1] amounted to 3.7 °C. For the same compound, the half-maximal inhibitory concentration (IC50) in assay [2] was 815 nM.

Take `O=c1[nH]c(-c2c(OCCNCCO)ccnc2Nc2ccc(C(F)(F)F)cc2)no1` [Example 54, 3-[4-[2-(2-hydroxyethylamino)ethoxy]-2-[4-(trifluoromethyl)anilino]-3-pyridyl]-4H-1,2,4-oxadiazol-5-one]: the thermal shift (ΔTm) at 7 µM in assay [1] was found to be 0.9 °C. Further, the half-maximal inhibitory concentration (IC50) in assay [2] is 357 nM.

For the compound `NCCOc1ccnc(Nc2ccc(C(F)(F)F)cc2)c1-c1noc(=O)[nH]1` [Example 55, 3-[4-(2-aminoethoxy)-2-[4-(trifluoromethyl)anilino]-3-pyridyl]-4H-1,2,4-oxadiazol-5-one], the shift in melting temperature (ΔTm) at 7 µM in assay [1] amounted to 1 °C. For the same compound, the IC50 in assay [2] is 281 nM.

As to `CC(=O)NCCOc1ccnc(Nc2ccc(C(F)(F)F)cc2)c1-c1noc(=O)[nH]1` [Example 56, N-[2-[[3-(5-oxo-4H-1,2,4-oxadiazol-3-yl)-2-[4-(trifluoromethyl)anilino]-4-pyridyl]oxy]ethyl]acetamide], the ΔTm at 7 µM in assay [1] came out at 4.3 °C. Further, in assay [2], the 50% inhibitory concentration (IC50) was 767 nM.
